Molecular target: T1, human farnesoid X receptor (Homo sapiens, UniProt Q96RI1)
T1 construct: CMX-farnesoid X receptor (full length human farnesoid X receptor); expressed in transfected cells; host or cells: CV-1 African Green Monkey Kidney cells
T1 sequence (Q96RI1 1-472 isoform Q96RI1-2): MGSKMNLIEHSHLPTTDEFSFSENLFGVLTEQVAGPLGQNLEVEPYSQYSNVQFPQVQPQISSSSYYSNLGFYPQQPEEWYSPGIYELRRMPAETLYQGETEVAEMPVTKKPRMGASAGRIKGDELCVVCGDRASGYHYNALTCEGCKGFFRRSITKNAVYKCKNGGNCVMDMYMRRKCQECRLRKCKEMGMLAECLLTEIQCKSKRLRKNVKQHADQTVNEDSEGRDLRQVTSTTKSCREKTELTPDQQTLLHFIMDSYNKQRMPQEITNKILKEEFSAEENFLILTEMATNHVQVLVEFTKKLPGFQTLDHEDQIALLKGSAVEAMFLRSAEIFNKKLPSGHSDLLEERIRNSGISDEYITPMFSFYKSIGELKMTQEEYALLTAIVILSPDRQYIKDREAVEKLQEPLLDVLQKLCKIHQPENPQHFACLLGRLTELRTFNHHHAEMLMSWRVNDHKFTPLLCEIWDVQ
T1 sequence (P19793 1-462 partner): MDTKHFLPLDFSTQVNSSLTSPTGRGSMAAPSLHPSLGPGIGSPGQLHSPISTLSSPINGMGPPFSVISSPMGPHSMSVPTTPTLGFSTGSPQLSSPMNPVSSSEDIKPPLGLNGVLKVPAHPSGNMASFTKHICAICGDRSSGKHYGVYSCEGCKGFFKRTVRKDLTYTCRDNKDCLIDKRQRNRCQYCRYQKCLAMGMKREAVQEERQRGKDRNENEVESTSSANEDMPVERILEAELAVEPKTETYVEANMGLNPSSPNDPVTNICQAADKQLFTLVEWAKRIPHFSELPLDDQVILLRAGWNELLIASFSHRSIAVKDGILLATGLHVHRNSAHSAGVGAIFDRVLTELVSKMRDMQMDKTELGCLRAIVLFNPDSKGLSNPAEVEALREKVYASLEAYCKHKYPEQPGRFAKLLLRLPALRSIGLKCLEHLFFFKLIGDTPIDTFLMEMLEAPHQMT
Assay: FXR in vitro assays (farnesoid X receptor/ECREx7 co-transfection assay, TR-FRET assay), Table I
Type: cell-based
Conditions: for EC50: agonist activity, one or more of the in vitro assays, read-out: EC50; for Emax: read-out: % Efficacy
Experimental: The basic co-transfection protocol for measuring the farnesoid X receptor activity is as follows. CV-1 African Green Monkey Kidney cells were plated 24 hours before transfection to achieve approximately 70-80 percent confluency. […] The assay was allowed to continue for an additional 18-20 hours, after which the cells were lysed, with lysis buffer (1% triton X 100, 10% glycerol, 5 mM Dithiothreitol, 1 mM EGTA, 25 mM Tricine, pH 7.8) and the luciferase activity measured in the presence of Luciferase assay buffer (0.73 mM ATP, 22.3 mm Tricine, 0.11 mM EGTA, 0.55 mM Luciferin, 0.15 mM Coenzyme A, 0.5 mM HEPES, 10 mM Magnesium sulphatc) on a standard luminometer plate reader (PE Biosystems, NorthStar Reader), using recommended operating instructions and conditions.
The dose response curves are generated from an 8 point curve with concentrations differing by ½ LOG units. Each point represents the average of 4 wells of data from a 384 well plate. A curve for the data is generated by using the equation:
Y=Bottom+(Top−Bottom)/(1+10̂((Log EC50−X)*HillSlope))
The EC50/IC50 is therefore defined as the concentration at which an agonist or antagonist elicits a response that is half way between the Top (maximum) and Bottom (baseline) values. The EC50/IC50 values represented are the averages of at least 3 independent experiments.

CC(C)OC(=O)C1=CN(C(=O)C2CCCCC2)CC(C)(C)c2c1[nH]c1ccccc21 [Example 1, 1-Methylethyl 1,1-Dimethyl-1,2,3,6-Tetrahydroazepino [4,5-b]Indole-5-CarboxylateE]
EC50: 10 to 100 nM | Emax: > 100%

CC(C)OC(=O)C1=CN(C(=O)C2CCCCCC2)CC(C)(C)c2c1[nH]c1ccccc21 [Example 12, 1-Methylethyl 3-[(3,4-Difluorophenyl)Carbonyl]-8-[(f{[2-(Dimethylamino)Ethyl]amino}Carbonyl)Oxy]-1,1-Dimethyl-1,2,3,6-tetrahydroazepino[4,5-b]Indole-5-Carboxylate]
EC50: 10 to 100 nM | Emax: > 100%

CC(C)OC(=O)C1=CN(C(=O)CCCN(C)C)CC(C)(C)c2c1[nH]c1ccccc21 [Example 20]
EC50: 1000 to 10000 nM

CC(=O)C1=CNCC(C)(C)c2c1[nH]c1ccccc21 [Example 21]
EC50: 1000 to 10000 nM

CC(C)OC(=O)C1=CN(C(=O)NCCN2CCOCC2)CC(C)(C)c2c1[nH]c1ccccc21 [Example 22, 1-methylethyl 1,1-dimethyl-3-{[(2-morpholin-4-ylethyl)amino]carbonyl}-1,2,3,6-tetrahydroazepino[4,5-b]indole-5-carboxylate]
EC50: 1000 to 10000 nM

CC(C)OC(=O)C1=CN(C(=O)C23C[C@H]4C[C@@H](C2)C[C@@H](C3)C4)CC(C)(C)c2c1[nH]c1ccccc21 [Example 24, 1-methylethyl 1,1-dimethyl-3-[(3s,5s,7s)-tricyclo[3.3.1.1~3,7~]dec-1-ylcarbonyl]-1,2,3,6-tetrahydroazepino [4,5-b]indole-5-carboxylate]
EC50: 10 to 100 nM | Emax: > 100%

CCN(CC)CCN(CC)C(=O)N1C=C(C(=O)OC(C)C)c2[nH]c3ccccc3c2C(C)(C)C1 [Example 27, 1-methylethyl 3-({[2-(diethylamino)ethyl](ethyl)amino}carbonyl)-1,1-dimethyl-1,2,3,6-tetrahydro azepino [4,5-b]indole-5-carboxylate]
EC50: 1000 to 10000 nM

CC(C)OC(=O)C1=CN(C(=O)N2CCN(C)CC2)CC(C)(C)c2c1[nH]c1ccc(F)cc21 [Example 32, 1-methylethyl 9-fluoro-1,1-dimethyl-3-[(4-methylpiperazin-1-yl)carbonyl]-1,2,3,6-tetrahydroazepino[4,5-b]indole-5-carboxylate]
EC50: 100 to 1000 nM | Emax: > 100%

CC(C)OC(=O)C1=CN(C(=O)N2CCCCCC2)CC(C)(C)c2c1[nH]c1ccccc21 [Example 40, 1-methylethyl 3-(azepan-1-ylcarbonyl)-1,1-dimethyl-1,2,3,6-tetrahydroazepino [4,5-b]indole-5-carboxylate]
EC50: 1 to 10 nM | Emax: > 100%

CC(C)OC(=O)C1=CN(C(=O)NC2CCCC2)CC(C)(C)c2c1[nH]c1ccccc21 [Example 44, 1-methylethyl 3-[(cyclopentylamino)carbonyl]-1,1-dimethyl-1,2,3,6-tetrahydroazepino[4,5-b]indole-5-carboxylate]
EC50: 10 to 100 nM | Emax: > 100%

CC(C)OC(=O)C1=CN(C(=O)NC2CCCCCC2)CC(C)(C)c2c1[nH]c1ccccc21 [Example 46, 1-methylethyl 3-[(cycloheptylamino)carbonyl]-1,1-dimethyl-1,2,3,6-tetrahydroazepino[4,5-b]indole-5-carboxylate]
EC50: 10 to 100 nM | Emax: > 100%

CC(C)OC(=O)C1=CN(C(=O)NCc2ccccc2)CC(C)(C)c2c1[nH]c1ccccc21 [Example 49, 1-methylethyl 1,1-dimethyl-3-{[(phenylmethyl)amino]carbonyl}-1,2,3,6-tetrahydroazepino[4,5-b]indole-5-carboxylate]
EC50: 1000 to 10000 nM | Emax: 80 to 100%

CCN(CC)C(=O)N1C=C(C(=O)OC(C)C)c2[nH]c3ccccc3c2C(C)(C)C1 [Example 52, 1-methylethyl 3-[(diethylamino)carbonyl]-1,1-dimethyl-1,2,3,6-tetrahydroazepino[4,5-b]indole-5-carboxylate]
EC50: 10 to 100 nM | Emax: > 100%

CC(C)OC(=O)C1=CN(C(=O)N2CCCC(COCCCN(C)C)C2)CC(C)(C)c2c1[nH]c1ccccc21 (stereo not shown) [Example 55, 1-methylethyl 3-{[3-({[3-(dimethylamino)propyl]oxy}methyl)piperidin-1-yl]carbonyl}-1,1-dimethyl-1,2,3,6-tetrahydroazepino[4,5-b]indole-5-carboxylate]
EC50: 1000 to 10000 nM

CC(C)OC(=O)C1=CN(C(=O)N2CCCN(Cc3ccccc3)CC2)CC(C)(C)c2c1[nH]c1ccccc21 [Example 59, 1-methylethyl 1,1-dimethyl-3-{[4-(phenylmethyl)-1,4-diazepan-1-yl]carbonyl}-1,2,3,6-tetrahydroazepino [4,5-b]indole-5-carboxylate]
EC50: 10 to 100 nM | Emax: > 100%

CC(C)OC(=O)C1=CN(C(=O)c2c(F)ccc(F)c2Cl)CC(C)(C)c2c1[nH]c1ccccc21 [Example 61, 1-methylethyl 3-[(2-chloro-3,6-difluorophenyl)carbonyl]-1,1-dimethyl-1,2,3,6-tetrahydroazepino[4,5-b]indole-5-carboxylate]
EC50: 10 to 100 nM | Emax: > 100%

CC(C)OC(=O)C1=CN(C(=O)c2ccccc2)CC(C)(C)c2c1[nH]c1ccccc21 [Example 62, 1-methylethyl 1,1-dimethyl-3-(phenylcarbonyl)-1,2,3,6-tetrahydroazepino[4,5-b]indole-5-carboxylate]
EC50: 1 to 10 nM | Emax: > 100%

CC(C)OC(=O)C1=CN(C(=O)c2ccccc2F)CC(C)(C)c2c1[nH]c1ccccc21 [Example 63, 1-methylethyl 3-[(2-fluorophenyl)carbonyl]-1,1-dimethyl-1,2,3,6-tetrahydroazepino[4,5-b]indole-5-carboxylate]
EC50: 10 to 100 nM | Emax: > 100%

CC(C)OC(=O)C1=CN(C(=O)c2ccccc2Cl)CC(C)(C)c2c1[nH]c1ccccc21 [Example 66, 1-methylethyl 3-[(2-chlorophenyl)carbonyl]-1,1-dimethyl-1,2,3,6-tetrahydroazepino[4,5-b]indole-5-carboxylate]
EC50: 1 to 10 nM | Emax: > 100%

Cc1ccccc1C(=O)N1C=C(C(=O)OC(C)C)c2[nH]c3ccccc3c2C(C)(C)C1 [Example 68, 1-methylethyl 1,1-dimethyl-3-[(2-methylphenyl)carbonyl]-1,2,3,6-tetrahydroazepino[4,5-b]indole-5-carboxylate]
EC50: 10 to 100 nM | Emax: > 100%

COc1ccccc1C(=O)N1C=C(C(=O)OC(C)C)c2[nH]c3ccccc3c2C(C)(C)C1 [Example 69, 1-methylethyl 1,1-dimethyl-3-{[2-(methyloxy)phenyl]carbonyl}-1,2,3,6-tetrahydroazepino[4,5-b]indole-5-carboxylate]
EC50: 10 to 100 nM | Emax: > 100%

CC(C)OC(=O)C1=CN(C(=O)c2ccc(F)cc2F)CC(C)(C)c2c1[nH]c1ccccc21 [Example 73, 1-methylethyl 3-[(2,4-difluorophenyl)carbonyl]-1,1-dimethyl-1,2,3,6-tetrahydroazepino[4,5-b]indole-5-carboxylate]
EC50: 1 to 10 nM | Emax: > 100%

CC(C)OC(=O)C1=CN(C(=O)c2cccc(F)c2F)CC(C)(C)c2c1[nH]c1ccccc21 [Example 74, 1-methylethyl 3-[(2,3-difluorophenyl)carbonyl]-1,1-dimethyl-1,2,3,6-tetrahydroazepino[4,5-b]indole-5-carboxylate]
EC50: 1 to 10 nM | Emax: > 100%

CC(C)OC(=O)C1=CN(C(=O)c2c(F)cccc2F)CC(C)(C)c2c1[nH]c1ccccc21 [Example 75, 1-methylethyl 3-[(2,6-difluorophenyl)carbonyl]-1,1-dimethyl-1,2,3,6-tetrahydroazepino[4,5-b]indole-5-carboxylate]
EC50: 1 to 10 nM | Emax: > 100%

Reference: patent publication US20090203577A1 (EXELIXIS, INC., priority 2005, published 2009)
